Measured values: patent US20250230193A1, “CYCLIC COMPOUND HAVING SELECTIVE KRAS INHIBITORY EFFECT ON HRAS AND NRAS” (CHUGAI SEIYAKU KABUSHIKI KAISHA, priority 2022, published 2025)
*1 amine or outer side, *2 acyl side, *3 side chain or, on linkers, in order; H or OH if unused. Where a SMILES comes first, the peptide text is derived from it. Bridges are numbered along the chain shown (N, C = ends). [ ]: non-standard residue; d: D form. The star is where a group is joined. hPhe(3-Cl-4-CF3) = N[C@@H](CCc1ccc(C(F)(F)F)c(Cl)c1)C(=O)O; NPrPhe(4-CF3) = CCCN[C@@H](Cc1ccc(C(F)(F)F)cc1)C(=O)O; NMeGly(cPent) = CN[C@H](C(=O)O)C1CCCC1; X46 = CC1(C)CN([*:1])[C@@H]1C(=O)[*:2]; NMeD = CN[C@@H](CC(=O)O)C(=O)O; NMeL = CN[C@@H](CC(C)C)C(=O)O; Morpholide = C1CN(*)CCO1; Ac5c = NC1(C(=O)O)CCCC1; Aze = O=C(O)[C@@H]1CCN1; Sar = CNCC(=O)O

Tests used:
[1] = biological target: GDP-bound NRAS wild-type protein (Homo sapiens, UniProt P01111); assay: Binding to NRAS by surface plasmon resonance (SPR), Single Cycle Kinetics; conditions: for NRAS/KRAS (ratio of KD value with respect to GDP-bound NRAS wild-type protein to KD value with respect to KRAS): class symbols
GDP-bound NRAS wild-type protein, sequence (P01111 whole entry): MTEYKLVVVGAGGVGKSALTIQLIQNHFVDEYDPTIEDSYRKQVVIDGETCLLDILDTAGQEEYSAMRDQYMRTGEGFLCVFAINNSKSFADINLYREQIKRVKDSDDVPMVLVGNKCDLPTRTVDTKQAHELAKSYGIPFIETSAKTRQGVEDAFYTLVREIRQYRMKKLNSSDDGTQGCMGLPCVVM

[2] = biological target: GDP-bound HRAS wild-type protein (Homo sapiens, UniProt P01112); assay: Binding to HRAS by surface plasmon resonance (SPR), Single Cycle Kinetics; conditions: for HRAS/KRAS (ratio of KD value with respect to GDP-bound HRAS wild-type protein to KD value with respect to KRAS): class symbols
GDP-bound HRAS wild-type protein, sequence (P01112 whole entry): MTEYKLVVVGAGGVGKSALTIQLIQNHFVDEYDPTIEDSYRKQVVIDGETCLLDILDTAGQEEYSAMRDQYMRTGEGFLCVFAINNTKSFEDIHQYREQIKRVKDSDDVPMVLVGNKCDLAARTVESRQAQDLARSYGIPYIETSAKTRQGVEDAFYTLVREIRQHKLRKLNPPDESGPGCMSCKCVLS

[3] = SPR, GDP-bound NRAS wild-type vs GDP-bound KRAS wild-type
[4] = SPR, GDP-bound HRAS wild-type vs GDP-bound KRAS wild-type
[5] = KD ratio, GDP-bound NRAS wild-type vs GDP-bound KRAS wild-type, SPR
[6] = KD ratio, GDP-bound HRAS wild-type vs GDP-bound KRAS wild-type, SPR

CCO[C@@H]1C[C@H]2C(=O)NC3(CC(C)(C)C3)C(=O)N(C)[C@@H](C(CC)CC)C(=O)N(C)[C@H](C(=O)N(C)C)CC(=O)N(C)[C@@H](CC)C(=O)N[C@@H]([C@@H](C)CC)C(=O)N(C)CC(=O)N(C)[C@H]3C/C=C\CCN(C3=O)[C@@H](Cc3ccc(C)cc3)C(=O)N(C)CC(=O)N[C@@H](CCc3ccc(C(F)(F)F)c(Cl)c3)C(=O)N2C1 [PP2154]
NRAS/KRAS (ratio of KD value with respect to NRAS to KD value with respect to KRAS) [1, 3]: A (a compound having 10 or more and less than 20 is denoted as A) | HRAS/KRAS (ratio of KD value with respect to HRAS to KD value with respect to KRAS) [2, 4]: A (a compound having 10 or more and less than 20 is denoted as A)

CCO[C@@H]1C[C@H]2C(=O)NC3(CCC3)C(=O)N(C)[C@@H](C3CCCC3)C(=O)N(C)[C@H](C(=O)N(C)C)CC(=O)N(C)[C@@H](Cc3ccc(F)c(F)c3)C(=O)N[C@@H]([C@@H](C)CC)C(=O)N(C)CC(=O)N(C)[C@H]3CCCCCN(C3=O)[C@@H](Cc3ccc(C(F)(F)F)cc3)C(=O)N(C)CC(=O)N[C@@H](CCc3cc(F)c(C(F)(F)F)c(F)c3)C(=O)N2C1 [PP0937]
NRAS/KRAS (ratio of KD value with respect to NRAS to KD value with respect to KRAS) [1, 5]: B (a compound having 3 or more and less than 10 is denoted as B) | HRAS/KRAS (ratio of KD value with respect to HRAS to KD value with respect to KRAS) [2, 6]: B (a compound having 3 or more and less than 10 is denoted as B)

CCCN1C(=O)[C@@H]2CCN2C(=O)[C@H]2N(CC2(C)C)C(=O)[C@H]([C@@H](C)CC)NC(=O)[C@H](CC(C)C)N(C)C(=O)C[C@@H](C(=O)N2CCOCC2)N(C)C(=O)[C@H](C2CCCC2)N(C)C(=O)C2(CCCC2)NC(=O)[C@@H]2CCCN2C(=O)[C@H](CCc2ccc(C(F)(F)F)c(Cl)c2)NC(=O)CN(C)C(=O)[C@@H]1Cc1ccc(C(F)(F)F)cc1 [PP0277] ([NMeL]I[X46][Aze][NPrPhe(4-CF3)][Sar][hPhe(3-Cl-4-CF3)]P[Ac5c][NMeGly(cPent)][NMeD]-Morpholide; lactam N-11)
NRAS/KRAS (ratio of KD for GDP-bound NRAS wild-type to KD for KRAS) ([1]; KD ratio NRAS/KRAS, SPR): C (A compound having a KD ratio of 0.1 or more and less than 3 is denoted as C) | HRAS/KRAS (ratio of KD for GDP-bound HRAS wild-type to KD for KRAS) ([2]; KD ratio HRAS/KRAS, SPR): C (A compound having a KD ratio of 0.1 or more and less than 3 is denoted as C)

CCO[C@@H]1C[C@H]2C(=O)NC3(CC(C)(C)C3)C(=O)N(C)[C@@H](C(CC)CC)C(=O)N(C)[C@H](C(=O)N(C)C)CC(=O)N(C)[C@@H](COC)C(=O)N[C@@H]([C@@H](C)CC)C(=O)N(C)CC(=O)N(C)[C@H]3C/C=C\CCN(C3=O)[C@@H](CC3CCC(F)(F)CC3)C(=O)N(C)CC(=O)N[C@@H](CCc3ccc(C(F)(F)F)c(OC)c3)C(=O)N2C1 [PP2438]
NRAS/KRAS (ratio of KD value with respect to NRAS to KD value with respect to KRAS) [1, 3]: A (a compound having 10 or more and less than 20 is denoted as A) | HRAS/KRAS (ratio of KD value with respect to HRAS to KD value with respect to KRAS) [2, 4]: A (a compound having 10 or more and less than 20 is denoted as A)

CCO[C@@H]1C[C@H]2C(=O)NC3(CC(C)(C)C3)C(=O)N(C)[C@@H](C3CCCC3)C(=O)N(C)[C@H](CC)CC(=O)N(C)[C@@H](CC3CC3)C(=O)N[C@@H]([C@@H](C)CC)C(=O)N(C)CC(=O)N(C)[C@H]3C/C=C\CCN(C3=O)[C@@H](Cc3ccc(C(F)(F)F)cc3)C(=O)N(C)CC(=O)N[C@@H](CCc3cc(F)c(C(F)(F)F)c(F)c3)C(=O)N2C1 [PP1629]
NRAS/KRAS (ratio of KD value for NRAS to KD value for KRAS) [1, 5]: B (a compound having 3 or more and less than 10 is denoted as B) | HRAS/KRAS (ratio of KD value for HRAS to KD value for KRAS) [2, 6]: B (a compound having 3 or more and less than 10 is denoted as B)

CCO[C@@H]1C[C@H]2C(=O)NC3(CC(C)(C)C3)C(=O)N(C)[C@@H](C(CC)CC)C(=O)N(C)[C@H](C(=O)N(C)C)CC(=O)N(C)[C@@H](COC)C(=O)N[C@@H]([C@@H](C)CC)C(=O)N(C3CC3)CC(=O)N(C)[C@H]3C/C=C\CCN(C3=O)[C@@H](CC3CCC(F)(F)CC3)C(=O)N(C)CC(=O)N[C@@H](CCc3ccc(Cl)c(Cl)c3)C(=O)N2C1 [PP2569]
NRAS/KRAS (ratio of KD value with respect to GDP-bound NRAS wild-type protein to KD value with respect to KRAS) ([1]; KD ratio NRAS/KRAS): AA (a compound having 20 or more is denoted as AA) | HRAS/KRAS (ratio of KD value with respect to GDP-bound HRAS wild-type protein to KD value with respect to KRAS) ([2]; KD ratio HRAS/KRAS): A (a compound having 10 or more and less than 20 is denoted as A)

C#CCN1CC(=O)N(C)[C@H]2C/C=C\CCN(C2=O)[C@@H](Cc2ccc(C)cc2)C(=O)N(C)CC(=O)N[C@@H](CCc2cc(F)c(C(F)(F)F)c(F)c2)C(=O)N2C[C@H](OCC)C[C@H]2C(=O)NC2(CCC2)C(=O)N(C)[C@@H](C2CCCC2)C(=O)N(C)[C@H](C(=O)N(C)C)CC(=O)N(C)[C@@H](CCC)C(=O)N[C@@H](CC(C)C)C1=O [PP2536]
NRAS/KRAS (ratio of KD value with respect to GDP-bound NRAS wild-type protein to KD value with respect to KRAS) ([1]; KD ratio NRAS/KRAS): A (a compound having 10 or more and less than 20 is denoted as A) | HRAS/KRAS (ratio of KD value with respect to GDP-bound HRAS wild-type protein to KD value with respect to KRAS) ([2]; KD ratio HRAS/KRAS): B (a compound having 3 or more and less than 10 is denoted as B)
